Results on three compounds are retold here after patent US4386093A (The United States of America as represented by the …, priority 1981, dated 1983).

For data set [1], the system named is HL-23 C type virus. As to the kind of experiment: HL-23 foci formation (oncogenic transformation) in normal rat kidney cells. Type of data set: cell-based. As to conditions: NRK 153 Cl 7 cells, day 5.
The conditions of data set [2]: 1 μM; vaccinia assay.
Data set [3] can be described thus: Cell number in HL-23 foci formation assay. Type of data set: cell-based. As to conditions: rat, nrk 153 cl 7 cells, read-out: % Control Cell Number.
The nature of data set [4]: Cell number in herpes I plaque assay. The format is cell-based. As to conditions: mouse L cells.
A further data set deals with herpes simplex type I. The data set is described as follows: Herpes I plaque formation in mouse L cells. The format is cell-based. As to conditions: 72 h, day 3.
Data set [5] concerns S-adenosylhomocysteine hydrolase.
The test system of the next data set is vaccinia virus. As to the kind of experiment: microbe, parasite or virus in culture. Type of data set: cell-based.
Another data set can be described thus: in vitro. As to conditions: vaccinia assay host cells.
The test system of data set [6] is calf intestinal deaminase. The data set is described as follows: Deamination by calf intestinal deaminase. The format is biochemical.
Data set [7] concerns neutrophilis or macrophage cell lines.
The subject of the next data set is poliovirus. Type of data set: cell-based.
The subject of data set [8] is HL-23 C type virus. The data set is described as follows: HL-23 virus production in NRKB/HL23 cells. Type of data set: cell-based. As to conditions: HL2/3, 72 h. As for the experimental part:
on day 3; virus production by HL23 was measured with NRKB/HL23 cells on
day 3; oncogenic transformation by HL23 was assayed by infecting normal

Data set [9] is described as follows: Cell number in HL-23 virus production assay. Type of data set: cell-based. The following applies: rat, nrkb/hl23 cells, read-out: % Control Cell Number.
For another data set, the system named is adenosine kinase. As to the kind of experiment: Phosphorylation by adenosine kinase. Type of data set: biochemical.
The mark [10] stands for this setting: read-out: Ki, S-adenosylhomocysteine hydrolase.
[11] abbreviates: listed as (±)3-Deazaaristeromycin.

As a reminder, the inhibition is the change of the read-out against control, counted positive when it falls. As usually defined, the Ki is a measure of affinity in units of concentration, obtained from inhibition or displacement.

Molecules are shown by their SMILES. Where two headings read alike, the source gives them in different places.

On to `Nc1nccc2c1ncn2[C@@H]1C[C@H](CO)[C@@H](O)[C@H]1O` (relative stereo) [(±)3-deazaaristeromycin, (±)-4-amino-1-[(1α, 2β, 3β, 4α)-2,3-dihydroxy-4-(hydroxymethyl)-cyclopentyl]imidazo[4,5-c]pyridine], for which the “% Inhibition, HL-23 foci formation” value in the data set with HL-23 C type virus [1] (2.00 uM, 2 µM) worked out at 92%. Moreover, the inhibition at 0.25 µM in the data set on HL-23 C type virus [1] (HL2/3, 120 h, 0.25 uM) amounted to 44%; with HL-23 C type virus [8] (0.25 uM, day 3), 68%. For the same compound, the inhibition at 0.5 µM with HL-23 C type virus [1] (HL2/3, 120 h, 0.50 uM) was 44%; in the data set on vaccinia virus (Orthopoxvirus vaccinia, read-out: % Inhibition, Vaccinia plaque formation, 0.5 uM) it was 84%; in the data set with HL-23 C type virus [8] (read-out: % Inhibition, HL-23 virus production, 0.50 uM, day 3), over 85%. Further, the inhibition at 1 µM with HL-23 C type virus [1] (HL2/3, 120 h, 1.00 uM) was 76%; in the data set with vaccinia virus (Orthopoxvirus vaccinia, read-out: % Inhibition, Vaccinia plaque formation, 1.0 uM), over 99%; in the data set with HL-23 C type virus [8] (1.00 uM, day 3), 86%. Besides, the inhibition at 2 µM in the data set with HL-23 C type virus [1] (HL2/3, 120 h, 2.00 uM) was about 96%; in the data set with vaccinia virus (Orthopoxvirus vaccinia, read-out: % Inhibition, Vaccinia plaque formation, 2.0 uM), 99.6%. Besides, the inhibition at 4 µM in the data set with HL-23 C type virus [1] (HL2/3, 120 h, 4.00 uM) is 99%; with vaccinia virus (Orthopoxvirus vaccinia, read-out: % Inhibition, Vaccinia plaque formation, 4.0 uM), 99.8%. The cytotoxicity result in data set [2] is “without any cytotoxicity”; in [4] (20-30 μM, read-out: Reduction in the cell number (cytotoxicity)), at most 5%. Besides, in data set [3] (0.25 uM), the activity at 120 h, 0.25 µM worked out at 100%. In data set [3] (0.50 uM), the activity at 120 h, 0.5 µM amounted to 96%. Moreover, the activity at 120 h, 1 µM in data set [3] (1.00 uM) came out at 81%. In data set [3] (2.00 uM), the activity at 120 h, 2 µM worked out at 71%. Besides, in data set [3] (4.00 uM), the activity at 120 h, 4 µM was 53%. Moreover, the activity at 72 h, 10 µM in data set [4] (10 uM, read-out: % Control Cell Number) worked out at 100%. Also, in data set [4] (20 uM, read-out: % Control Cell Number), the activity at 72 h, 20 µM is 95%. Besides, the activity at 72 h, 30 µM in [4] (30 uM, read-out: % Control Cell Number) is 95%. For the same compound, the activity at 72 h, 40 µM in [4] (40 uM, read-out: % Control Cell Number) was determined as 91%. The activity at 72 h, 50 µM in [4] (50 uM, read-out: % Control Cell Number) is 95%. In data set [4] (60 uM, read-out: % Control Cell Number), the activity at 72 h, 60 µM was 91%. Besides, the activity at 72 h, 70 µM in data set [4] (70 uM, read-out: % Control Cell Number) was determined as 82%. The inhibition at 10 µM in the data set with herpes simplex type I (10 uM) is 60%. This compound also gave an inhibition at 20 µM in the data set on herpes simplex type I (20 uM) of 97%. This compound came in with an inhibition at 30 µM in the data set on herpes simplex type I (30 uM) of over 99%. The inhibition at 40 µM with herpes simplex type I (40 uM) worked out at 99.3%. In addition, 50 µM produced 99.3% inhibition with herpes simplex type I (50 uM). For the same compound, the inhibition at 60 µM in the data set on herpes simplex type I (60 uM) stood at 100%. For the same compound, the inhibition at 70 µM with herpes simplex type I (70 uM) was 100%. Also, the “Irreversible inhibition of the enzyme” value in data set [5] was “negligible or very little irreversible inhibition”. Moreover, the Ki in data set [5] (read-out: Ki, AdoHcy hydrolase) stood at 3000 nM; in data set [5] (setting [10]), 3000 nM. The “% Inhibition, Vaccinia plaque formation” value in the data set with vaccinia virus (1.0 uM) came out at 99.2%. The activity at 0.5 µM in the data set “in vitro” is 120%. For the same compound, in the data set “in vitro”, the activity at 1 µM came out at 144%. Moreover, in “in vitro”, the activity at 2 µM was 111%. For the same compound, in “in vitro”, the activity at 4 µM is 111%. Moreover, the Deamination result in data set [6] (listed as 3-Deaza-Ari) is given as “not deaminated”; in [6] (setting [11]), “not subject to deamination or phosphorylation”. Also, in data set [7], the Inhibition of chemotaxis result is “does not inhibit”. For the same compound, in the data set with poliovirus, the “Inhibition of replication of poliovirus” value is listed as “fail to inhibit”. Moreover, the activity at 72 h, 0.25 µM in data set [9] (0.25 uM) came to 100%. In [9] (0.50 uM), the activity at 72 h, 0.5 µM came to 88%. In [9] (1.00 uM), the activity at 72 h, 1 µM was 75%. In addition, the Phosphorylation result with adenosine kinase (listed as 3-Deaza-Ari) is on record as “not phosphorylated”; with adenosine kinase (setting [11]), “not subject to deamination or phosphorylation”.

Regarding `Nc1ncnc2c1ncn2[C@@H]1C[C@H](CO)[C@@H](O)[C@H]1O` (relative stereo) [(±)aristeromycin, reference compound], the inhibitory constant (Ki) in data set [5] (setting [10]) was found to be 1 nM.

Consider `Nc1nccc2c1ncn2[C@@H]1O[C@H](CO)[C@@H](O)[C@H]1O` [3-deazaadenosine, reference compound], for which, in the data set with poliovirus, the “Inhibition of replication of poliovirus” value is listed as “fail to inhibit”.
